Data from ChEMBL document CHEMBL2380240, “Discovery, synthesis, selectivity modulation and DMPK characterization of 5-azaspiro[2.4]heptanes as potent orexin receptor antagonists” (Bioorg Med Chem Lett, 2013).

Molecular target: T1, CYP2C19 (Homo sapiens, UniProt P33261)
Experiment: Inhibition of human recombinant CYP2C19 at 3 uM by fluorimetric assay
Format: ADME
Conditions: not given; call rule not given here

T1 sequence (P33261 whole entry): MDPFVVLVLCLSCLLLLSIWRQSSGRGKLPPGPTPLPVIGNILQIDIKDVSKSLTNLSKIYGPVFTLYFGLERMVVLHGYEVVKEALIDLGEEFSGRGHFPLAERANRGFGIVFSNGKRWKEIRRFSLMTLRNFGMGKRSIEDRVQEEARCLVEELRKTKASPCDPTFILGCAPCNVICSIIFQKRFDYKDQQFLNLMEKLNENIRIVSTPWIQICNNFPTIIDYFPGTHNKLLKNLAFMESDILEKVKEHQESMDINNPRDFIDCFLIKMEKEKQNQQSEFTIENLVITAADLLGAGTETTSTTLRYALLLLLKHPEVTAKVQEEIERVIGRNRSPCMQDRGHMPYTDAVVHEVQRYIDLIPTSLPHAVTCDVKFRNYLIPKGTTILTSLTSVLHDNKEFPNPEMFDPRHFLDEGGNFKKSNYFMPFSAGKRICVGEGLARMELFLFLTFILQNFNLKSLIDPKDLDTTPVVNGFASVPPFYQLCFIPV

Row | inhibition at 3 µM [%] | Structure (SMILES)
1 | < 41 | CS(=O)(=O)c1ccc(-c2ccccc2)c(C(=O)N2CC3(CC3)C[C@H]2CNc2ccc(C(F)(F)F)cn2)c1
2 | < 39 | O=C(c1nc(C(F)(F)F)ccc1-c1ncccn1)N1CC2(CC2)C[C@H]1CNc1ccc(C(F)(F)F)cn1

Tested on: not listed separately
Experiment: Plasma clearance in rat at 1 mg/kg, iv
Format: ADME, organism-based
Parameters: dose 1 mg/kg, route intravenous
Conditions: not given

Row | clearance [mL/min/kg] | Structure (SMILES)
3 | 41.4 | Cc1cc(C)nc(NC[C@@H]2CC3(CC3)CN2C(=O)c2nc(C)sc2-c2ccccc2)n1
4 | 33.1 | Cc1ccc(-n2nccn2)c(C(=O)N2CC3(CC3)C[C@H]2CNc2cccc(C)n2)c1

Molecular target: T2, Cytochrome P450 3A4 (Homo sapiens, UniProt P08684)
T2 sequence (P08684 whole entry): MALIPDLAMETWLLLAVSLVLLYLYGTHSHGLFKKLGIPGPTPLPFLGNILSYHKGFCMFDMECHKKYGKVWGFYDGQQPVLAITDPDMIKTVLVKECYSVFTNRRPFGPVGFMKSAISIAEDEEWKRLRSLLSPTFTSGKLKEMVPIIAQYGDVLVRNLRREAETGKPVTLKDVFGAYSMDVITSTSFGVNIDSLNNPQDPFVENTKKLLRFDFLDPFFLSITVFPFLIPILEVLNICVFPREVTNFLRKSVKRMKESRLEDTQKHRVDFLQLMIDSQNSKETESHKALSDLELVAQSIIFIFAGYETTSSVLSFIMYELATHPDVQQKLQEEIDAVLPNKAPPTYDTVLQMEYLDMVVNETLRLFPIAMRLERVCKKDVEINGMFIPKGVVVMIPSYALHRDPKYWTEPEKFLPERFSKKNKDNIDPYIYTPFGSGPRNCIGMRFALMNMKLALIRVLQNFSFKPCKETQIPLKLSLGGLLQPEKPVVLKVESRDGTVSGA
Experiment: Inhibition of human recombinant CYP3A4 using BFC as substrate by fluorimetric assay
Format: ADME
Conditions: not given

Row | IC50 [µM] | Structure (SMILES)
5 | 7.9 | Cc1cc(C)nc(NC[C@@H]2CC3(CC3)CN2C(=O)c2nc(C)sc2-c2ccccc2)n1

Molecular target: T3, CYP2D6 (Homo sapiens, UniProt P10635)
T3 sequence (P10635 whole entry): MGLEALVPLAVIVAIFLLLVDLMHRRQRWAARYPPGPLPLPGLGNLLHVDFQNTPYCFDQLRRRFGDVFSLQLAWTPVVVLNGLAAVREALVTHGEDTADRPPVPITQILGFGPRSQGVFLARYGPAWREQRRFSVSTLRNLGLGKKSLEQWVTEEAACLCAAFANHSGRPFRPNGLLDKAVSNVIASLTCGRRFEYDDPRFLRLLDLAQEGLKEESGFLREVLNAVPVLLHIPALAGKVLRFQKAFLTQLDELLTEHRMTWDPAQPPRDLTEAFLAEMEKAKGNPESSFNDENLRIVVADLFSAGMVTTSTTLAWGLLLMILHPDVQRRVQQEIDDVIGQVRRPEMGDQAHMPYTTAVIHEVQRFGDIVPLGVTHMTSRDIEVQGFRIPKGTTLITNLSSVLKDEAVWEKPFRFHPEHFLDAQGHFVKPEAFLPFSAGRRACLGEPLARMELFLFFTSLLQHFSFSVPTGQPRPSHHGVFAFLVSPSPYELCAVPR
Experiment: Inhibition of human recombinant CYP2D6 at 1 uM by fluorimetric assay
Format: ADME
Conditions: not given

Row | inhibition at 1 µM [%] | Structure (SMILES)
6 | < 16 | Cc1cc(C)nc(NC[C@@H]2CC3(CC3)CN2C(=O)c2nc(C)sc2-c2ccccc2)n1
7 | < 34 | Cc1ccc(-n2nccn2)c(C(=O)N2CC3(CC3)C[C@H]2CNc2cccc(C)n2)c1

Molecular target: T4, Orexin receptor type 2 (Homo sapiens) (UniProt O43614)
T4 sequence (whole entry): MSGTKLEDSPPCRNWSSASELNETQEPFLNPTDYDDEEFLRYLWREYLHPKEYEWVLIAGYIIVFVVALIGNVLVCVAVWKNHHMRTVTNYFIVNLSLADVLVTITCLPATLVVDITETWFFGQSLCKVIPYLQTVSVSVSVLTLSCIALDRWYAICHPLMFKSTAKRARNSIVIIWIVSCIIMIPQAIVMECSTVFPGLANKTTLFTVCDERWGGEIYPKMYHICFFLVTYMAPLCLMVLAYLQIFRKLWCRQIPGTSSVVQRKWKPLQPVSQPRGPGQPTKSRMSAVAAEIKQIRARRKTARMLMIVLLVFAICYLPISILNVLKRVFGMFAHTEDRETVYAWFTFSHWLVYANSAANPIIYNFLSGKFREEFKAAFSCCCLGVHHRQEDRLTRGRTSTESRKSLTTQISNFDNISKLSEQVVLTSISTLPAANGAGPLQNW
Experiment: Antagonist activity at human recombinant OX2 receptor expressed in HEK293 cells assessed as OXB-stimulated intracellular calcium mobilization by FLIPR assay
Format: functional, cell-based
Conditions: not given

Row | pKb | Structure (SMILES)
8 | 8.6 | Cc1cc(C)nc(NC[C@@H]2CC3(CC3)CN2C(=O)c2nc(C)sc2-c2ccccc2)n1
9 | < 5 | Cc1ccc(-n2nccn2)c(C(=O)N2CC3(CC3)C[C@H]2CNc2cccc(C)n2)c1
10 | 7.1 | CS(=O)(=O)c1ccc(-c2ccccc2)c(C(=O)N2CC3(CC3)C[C@H]2CNc2ccc(C(F)(F)F)cn2)c1
11 | 5 | O=C(c1nc(C(F)(F)F)ccc1-c1ncccn1)N1CC2(CC2)C[C@H]1CNc1ccc(C(F)(F)F)cn1

Molecular target: T1, CYP2C19
Experiment: Inhibition of human recombinant CYP2C19 at 1 uM by fluorimetric assay
Format: ADME
Conditions: not given

Row | inhibition at 1 µM [%] | Structure (SMILES)
12 | < 16 | Cc1cc(C)nc(NC[C@@H]2CC3(CC3)CN2C(=O)c2nc(C)sc2-c2ccccc2)n1
13 | < 34 | Cc1ccc(-n2nccn2)c(C(=O)N2CC3(CC3)C[C@H]2CNc2cccc(C)n2)c1

Molecular target: T5, CYP1A2 (Homo sapiens, UniProt P05177)
T5 sequence (P05177 whole entry): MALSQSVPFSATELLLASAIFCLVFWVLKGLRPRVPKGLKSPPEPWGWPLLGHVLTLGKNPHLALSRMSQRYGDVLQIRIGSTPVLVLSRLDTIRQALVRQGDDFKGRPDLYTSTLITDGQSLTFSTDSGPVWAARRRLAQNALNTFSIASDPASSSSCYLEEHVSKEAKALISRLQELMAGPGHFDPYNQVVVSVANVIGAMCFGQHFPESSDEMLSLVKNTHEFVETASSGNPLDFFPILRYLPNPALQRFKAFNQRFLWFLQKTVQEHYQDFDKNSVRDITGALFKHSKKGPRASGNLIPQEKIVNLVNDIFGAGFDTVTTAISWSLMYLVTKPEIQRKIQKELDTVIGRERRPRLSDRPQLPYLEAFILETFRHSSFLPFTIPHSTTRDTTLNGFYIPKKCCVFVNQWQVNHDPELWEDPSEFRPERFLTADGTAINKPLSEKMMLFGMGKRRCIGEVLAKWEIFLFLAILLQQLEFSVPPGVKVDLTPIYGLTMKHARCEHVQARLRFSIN
Experiment: Inhibition of human recombinant CYP1A2 at 3 uM by fluorimetric assay
Format: ADME
Conditions: not given

Row | inhibition at 3 µM [%] | Structure (SMILES)
14 | < 41 | CS(=O)(=O)c1ccc(-c2ccccc2)c(C(=O)N2CC3(CC3)C[C@H]2CNc2ccc(C(F)(F)F)cn2)c1
15 | < 39 | O=C(c1nc(C(F)(F)F)ccc1-c1ncccn1)N1CC2(CC2)C[C@H]1CNc1ccc(C(F)(F)F)cn1

Molecular target: T3, CYP2D6
Experiment: Inhibition of human recombinant CYP2D6 at 3 uM by fluorimetric assay
Format: ADME
Conditions: not given

Row | inhibition at 3 µM [%] | Structure (SMILES)
16 | < 41 | CS(=O)(=O)c1ccc(-c2ccccc2)c(C(=O)N2CC3(CC3)C[C@H]2CNc2ccc(C(F)(F)F)cn2)c1
17 | < 39 | O=C(c1nc(C(F)(F)F)ccc1-c1ncccn1)N1CC2(CC2)C[C@H]1CNc1ccc(C(F)(F)F)cn1

Molecular target: T6, Orexin/Hypocretin receptor type 1 (Homo sapiens) (UniProt O43613)
T6 sequence (whole entry): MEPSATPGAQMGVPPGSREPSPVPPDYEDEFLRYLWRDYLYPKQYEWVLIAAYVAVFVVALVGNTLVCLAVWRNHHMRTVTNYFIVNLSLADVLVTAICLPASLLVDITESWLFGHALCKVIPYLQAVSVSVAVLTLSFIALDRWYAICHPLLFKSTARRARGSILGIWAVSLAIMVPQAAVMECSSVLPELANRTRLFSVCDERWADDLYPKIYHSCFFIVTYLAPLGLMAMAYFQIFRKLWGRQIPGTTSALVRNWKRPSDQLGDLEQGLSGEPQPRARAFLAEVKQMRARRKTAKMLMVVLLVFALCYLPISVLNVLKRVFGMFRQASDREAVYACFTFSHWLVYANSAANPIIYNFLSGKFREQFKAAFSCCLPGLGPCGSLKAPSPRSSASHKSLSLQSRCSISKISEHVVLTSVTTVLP
Experiment: Antagonist activity at human recombinant OX1 receptor expressed in CHO cells assessed as OXA-stimulated intracellular calcium mobilization by FLIPR assay
Format: functional, cell-based
Conditions: not given

Row | pKb | Structure (SMILES)
18 | 7.5 | Cc1cc(C)nc(NC[C@@H]2CC3(CC3)CN2C(=O)c2nc(C)sc2-c2ccccc2)n1
19 | 7.1 | Cc1ccc(-n2nccn2)c(C(=O)N2CC3(CC3)C[C@H]2CNc2cccc(C)n2)c1
20 | 6.7 | CS(=O)(=O)c1ccc(-c2ccccc2)c(C(=O)N2CC3(CC3)C[C@H]2CNc2ccc(C(F)(F)F)cn2)c1
21 | 6.7 | O=C(c1nc(C(F)(F)F)ccc1-c1ncccn1)N1CC2(CC2)C[C@H]1CNc1ccc(C(F)(F)F)cn1

Molecular target: T7, CYP2C9 (Homo sapiens, UniProt P11712)
T7 sequence (P11712 whole entry): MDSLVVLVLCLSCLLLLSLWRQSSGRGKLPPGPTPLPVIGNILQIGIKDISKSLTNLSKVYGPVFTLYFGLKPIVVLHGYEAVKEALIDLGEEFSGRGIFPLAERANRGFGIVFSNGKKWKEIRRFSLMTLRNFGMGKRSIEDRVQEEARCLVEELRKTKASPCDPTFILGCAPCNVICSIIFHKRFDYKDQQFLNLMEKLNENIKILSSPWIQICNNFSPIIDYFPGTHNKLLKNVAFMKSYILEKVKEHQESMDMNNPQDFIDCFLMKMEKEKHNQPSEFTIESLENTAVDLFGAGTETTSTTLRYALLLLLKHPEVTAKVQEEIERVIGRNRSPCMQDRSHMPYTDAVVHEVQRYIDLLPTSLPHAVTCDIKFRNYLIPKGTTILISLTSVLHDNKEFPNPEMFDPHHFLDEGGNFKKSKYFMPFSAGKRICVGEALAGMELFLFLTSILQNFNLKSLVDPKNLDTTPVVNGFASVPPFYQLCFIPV
Experiment: Inhibition of human recombinant CYP2C9 at 3 uM by fluorimetric assay
Format: ADME
Conditions: not given

Row | inhibition at 3 µM [%] | Structure (SMILES)
22 | < 41 | CS(=O)(=O)c1ccc(-c2ccccc2)c(C(=O)N2CC3(CC3)C[C@H]2CNc2ccc(C(F)(F)F)cn2)c1
23 | < 39 | O=C(c1nc(C(F)(F)F)ccc1-c1ncccn1)N1CC2(CC2)C[C@H]1CNc1ccc(C(F)(F)F)cn1

Molecular target: T5, CYP1A2
Experiment: Inhibition of human recombinant CYP1A2 at 1 uM by fluorimetric assay
Format: ADME
Conditions: not given

Row | inhibition at 1 µM [%] | Structure (SMILES)
24 | < 16 | Cc1cc(C)nc(NC[C@@H]2CC3(CC3)CN2C(=O)c2nc(C)sc2-c2ccccc2)n1
25 | < 34 | Cc1ccc(-n2nccn2)c(C(=O)N2CC3(CC3)C[C@H]2CNc2cccc(C)n2)c1

Molecular target: T8, CYP3A4 (Homo sapiens, UniProt P08684)
T8 sequence (P08684 whole entry): as the sequence (P08684 whole entry) above
Experiment: Inhibition of human recombinant CYP3A4 using BFC as substrate at 3 uM by fluorimetric assay
Format: ADME
Conditions: recombinant CYP3A4, probe BFC

Row | inhibition at 3 µM [%] | Structure (SMILES)
26 | < 41 | CS(=O)(=O)c1ccc(-c2ccccc2)c(C(=O)N2CC3(CC3)C[C@H]2CNc2ccc(C(F)(F)F)cn2)c1
27 | < 39 | O=C(c1nc(C(F)(F)F)ccc1-c1ncccn1)N1CC2(CC2)C[C@H]1CNc1ccc(C(F)(F)F)cn1

Molecular target: T8, CYP3A4
Experiment: Inhibition of human recombinant CYP3A4 using DBF as substrate at 3 uM by fluorimetric assay
Format: ADME
Conditions: recombinant CYP3A4, probe DBF

Row | inhibition at 3 µM [%] | Structure (SMILES)
28 | < 41 | CS(=O)(=O)c1ccc(-c2ccccc2)c(C(=O)N2CC3(CC3)C[C@H]2CNc2ccc(C(F)(F)F)cn2)c1
29 | < 39 | O=C(c1nc(C(F)(F)F)ccc1-c1ncccn1)N1CC2(CC2)C[C@H]1CNc1ccc(C(F)(F)F)cn1

Molecular target: T7, CYP2C9
Experiment: Inhibition of human recombinant CYP2C9 at 1 uM by fluorimetric assay
Format: ADME
Conditions: not given

Row | inhibition at 1 µM [%] | Structure (SMILES)
30 | < 16 | Cc1cc(C)nc(NC[C@@H]2CC3(CC3)CN2C(=O)c2nc(C)sc2-c2ccccc2)n1
31 | < 34 | Cc1ccc(-n2nccn2)c(C(=O)N2CC3(CC3)C[C@H]2CNc2cccc(C)n2)c1

Tested on: not listed separately
Experiment: Ratio of drug uptake from rat brain to plasma at 1 mg/kg, iv after 1 hr
Format: ADME, organism-based
Parameters: dose 1 mg/kg, route intravenous
Conditions: read-out: BPR

Row | Kp at 1 h | Structure (SMILES)
32 | 0.1 | Cc1cc(C)nc(NC[C@@H]2CC3(CC3)CN2C(=O)c2nc(C)sc2-c2ccccc2)n1
33 | 0.2 | Cc1ccc(-n2nccn2)c(C(=O)N2CC3(CC3)C[C@H]2CNc2cccc(C)n2)c1

Tested on: not listed separately
Experiment: Volume of distribution at steady state in rat
Format: ADME, organism-based
Conditions: in vivo, read-out: Vdss

Row | Vd [L/kg] | Structure (SMILES)
34 | 0.7 | Cc1cc(C)nc(NC[C@@H]2CC3(CC3)CN2C(=O)c2nc(C)sc2-c2ccccc2)n1
35 | 0.48 | Cc1ccc(-n2nccn2)c(C(=O)N2CC3(CC3)C[C@H]2CNc2cccc(C)n2)c1

Molecular target: T8, CYP3A4
Experiment: Inhibition of human recombinant CYP3A4 using BFC as substrate at 1 uM by fluorimetric assay
Format: ADME
Conditions: recombinant CYP3A4, probe BFC

Row | inhibition at 1 µM [%] | Structure (SMILES)
36 | < 16 | Cc1cc(C)nc(NC[C@@H]2CC3(CC3)CN2C(=O)c2nc(C)sc2-c2ccccc2)n1
37 | < 34 | Cc1ccc(-n2nccn2)c(C(=O)N2CC3(CC3)C[C@H]2CNc2cccc(C)n2)c1

Molecular target: T8, CYP3A4
Experiment: Inhibition of human recombinant CYP3A4 using DBF as substrate at 1 uM by fluorimetric assay
Format: ADME
Conditions: recombinant CYP3A4, probe DBF

Row | inhibition at 1 µM [%] | Structure (SMILES)
38 | < 16 | Cc1cc(C)nc(NC[C@@H]2CC3(CC3)CN2C(=O)c2nc(C)sc2-c2ccccc2)n1
39 | < 34 | Cc1ccc(-n2nccn2)c(C(=O)N2CC3(CC3)C[C@H]2CNc2cccc(C)n2)c1

Molecular target: T2, Cytochrome P450 3A4
Experiment: Time dependent inhibition of human recombinant CYP3A4 using BFC as substrate incubated for 30 mins prior to substrate addition
Format: ADME
Conditions: recombinant enzyme, 0.5 h

Row | inhibition (INH) | Structure (SMILES)
40 | Active | Cc1cc(C)nc(NC[C@@H]2CC3(CC3)CN2C(=O)c2nc(C)sc2-c2ccccc2)n1
